The values below are quoted from earlier work in US8759364B2, “Methods of treating bone mass diseases” (The Trustees of Columbia University in the City of New York, priority 2008, dated 2014).

Series [1] concerns brain-derived serotonin. The settings on record: mice, cited from earlier work.
Series [2] deals with serotonin in the GI tract. The settings on record: cited from earlier work.
For series [3], the system named is Serotonin levels in the small intestine. The settings on record: mice, twice per day over 3-4 days, about 30-90 mg/kg; after six consecutive doses; cited from earlier work.
The conditions of series [4]: oral, single dose 250 mg to 2,000 mg/day and multiple doses 250-1,000 mg/day; all dose levels; cited from earlier work.
Series [5] concerns the target T1, TPH2 (Homo sapiens, UniProt Q8IWU9).
T1 sequence (Q8IWU9 1-490): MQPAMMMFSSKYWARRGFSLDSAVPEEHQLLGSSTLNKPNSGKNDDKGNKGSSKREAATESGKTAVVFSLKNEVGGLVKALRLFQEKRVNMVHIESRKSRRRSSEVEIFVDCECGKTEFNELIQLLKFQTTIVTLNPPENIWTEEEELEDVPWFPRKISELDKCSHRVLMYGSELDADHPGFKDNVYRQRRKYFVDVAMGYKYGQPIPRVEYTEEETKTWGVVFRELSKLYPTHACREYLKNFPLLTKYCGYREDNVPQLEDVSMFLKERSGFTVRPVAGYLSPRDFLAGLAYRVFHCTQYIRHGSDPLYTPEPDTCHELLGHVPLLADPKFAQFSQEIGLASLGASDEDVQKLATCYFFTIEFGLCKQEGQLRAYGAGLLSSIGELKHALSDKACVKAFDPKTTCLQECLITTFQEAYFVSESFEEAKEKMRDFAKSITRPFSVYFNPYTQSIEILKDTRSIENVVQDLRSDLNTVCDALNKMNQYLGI
Conditions: cited from earlier work.

The subject of series [6] is brain serotonin levels. Conditions: in the amounts administered to mice; cited from earlier work.
For series [7] the following is noted: in vivo; cited from earlier work.

For `Nc1nc(OC(c2ccc(-c3cccc(F)c3)cc2)C(F)(F)F)cc(-c2ccc(C[C@H](N)C(=O)O)cc2)n1` (stereo partly drawn) [LP-533401], in series [1] (twice per day over 3-4 days, about 30-90 mg/kg), the brain-derived serotonin result is reported as “unchanged”. For the same compound, in series [1], the “crossing of the blood-brain barrier in vivo” value was “did not cross”. Besides, the “serotonin in the GI tract reduced to fraction of normal levels” value in series [2] (135 mg/kg, po, qd) is given as “less than ⅔”. Moreover, the “dose response of GI tract serotonin reduction” value in series [2] (mouse, in vivo) is on record as “dose response curve”. The “Serotonin levels in the small intestine” value in series [3] was “significantly lowered”. Further, the adverse events entry in series [4] was “Infrequent”. For the same compound, the “inhibition of TPH2 compared with TPH1” value in series [5] is given as “as effectively as”. Moreover, in series [6], the brain serotonin levels entry is on record as “not affected”.

Regarding `CC(C)NCC(O)COc1cccc2[nH]ccc12` (stereo not drawn) [Pindolol, pindolol], the “absorption from the GI tract” value in series [7] is “beta blocker; rapidly and well”.
